The values that follow come from ChEMBL document CHEMBL1151677, “Bicinchoninic acid protein assay in the determination of adriamycin cytotoxicity modulated by the MDR glycoprotein” (1996).

Assay [1] has as its system MCF/ADR. Description: Reversal of P-gp-mediated multidrug resistance in human MCF/ADR cells assessed as ratio of adriamycin ED50 without drug to adriamycin ED50 with drug at 0.53 uM after 6 days by BCA assay. The assay is classed as cell-based.
The nature of assay [2]: Cytotoxicity against human MCF7/ADR cells assessed as ratio of drug concentration to 2 x drug ED50 at 0.53 uM after 6 days by BCA assay. The assay is classed as functional, NCI/ADR-RES.
A short description of assay [3]: Cytotoxicity against human MCF7/ADR cells assessed as ratio of drug concentration to 2 x drug ED50 at 0.28 uM after 6 days by BCA assay. The assay is classed as functional, NCI/ADR-RES.
For assay [4], the system named is MCF/ADR. The experiment in a line: Reversal of P-gp-mediated multidrug resistance in human MCF/ADR cells assessed as ratio of adriamycin ED50 without drug to adriamycin ED50 with drug at 0.28 uM after 6 days by BCA assay. The assay is classed as cell-based.
Assay [5] can be described thus: Cytotoxicity against human MCF7/ADR cells assessed as ratio of drug concentration to 2 x drug ED50 at 1.07 uM after 6 days by BCA assay. Type of assay: functional, NCI/ADR-RES.
Assay [6] relates to MCF/ADR. Description: Reversal of P-gp-mediated multidrug resistance in human MCF/ADR cells assessed as ratio of adriamycin ED50 without drug to adriamycin ED50 with drug at 1.07 uM after 6 days by BCA assay. The assay is classed as cell-based.
For assay [7], the system named is MCF. Description: Reversal of P-gp-mediated multidrug resistance in human MCF cells assessed as enhancement in cytotoxicity of adriamycin. Type of assay: cell-based.
The subject of assay [8] is MCF/ADR. Description: Reversal of P-gp-mediated multidrug resistance in human MCF/ADR cells assessed as enhancement in cytotoxicity of adriamycin. Type of assay: cell-based.
Assay [9] relates to MCF7. The experiment in a line: Cytotoxicity against human MCF7 cells after 6 days by coulter counted assay. Type of assay: functional. The note with it: MCF7, 144 h, read-out: ED50 (the source's name).
Assay [10] in a line: Cytotoxicity against human MCF7/ADR cells after 6 days by coulter counted assay. The assay is classed as functional. The note with it: NCI/ADR-RES, 144 h, read-out: ED50 (the source's name).
Assay [11] in a line: Cytotoxicity against human MCF7/ADR cells after 6 days by BCA assay. To be noted: NCI/ADR-RES, 144 h, read-out: ED50 (the source's name). Type of assay: functional.
Assay [12] concerns MCF7. The experiment in a line: Cytotoxicity against human MCF7 cells after 6 days by BCA assay. The assay is classed as functional. The note with it: MCF7, 144 h, read-out: ED50 (the source's name).
Assay [13] can be described thus: Cytotoxicity against human MCF7/ADR cells assessed as ratio of drug concentration to 2 x drug ED50 at 0.82 uM after 6 days by BCA assay. The assay is classed as functional, NCI/ADR-RES.
Assay [14] can be described thus: Cytotoxicity against human MCF7/ADR cells assessed as ratio of drug concentration to 2 x drug ED50 at 1.64 uM after 6 days by BCA assay. The assay is classed as functional, NCI/ADR-RES.
A short description of assay [15]: Cytotoxicity against human MCF7/ADR cells assessed as ratio of drug concentration to 2 x drug ED50 at 3.29 uM after 6 days by BCA assay. The assay is classed as functional, NCI/ADR-RES.
A short description of assay [16]: Cytotoxicity against human MCF7/ADR cells assessed as ratio of drug concentration to 2 x drug ED50 at 0.15 uM after 6 days by BCA assay. The assay is classed as functional, NCI/ADR-RES.
Assay [17] in a line: Cytotoxicity against human MCF7/ADR cells assessed as ratio of drug concentration to 2 x drug ED50 at 0.30 uM after 6 days by BCA assay. The assay is classed as functional, NCI/ADR-RES.
A short description of assay [18]: Cytotoxicity against human MCF7/ADR cells assessed as ratio of drug concentration to 2 x drug ED50 at 1.23 uM after 6 days by BCA assay. Type of assay: functional, NCI/ADR-RES.
The nature of assay [19]: Displacement of N-(p-azido-[3-125I]salicyl)-N'-beta-aminoethylvindesine from P-glycoprotein at 12.4 uM.
A short description of assay [20]: Cytotoxicity against human MCF7/ADR cells assessed as ratio of drug concentration to 2 x drug ED50 at 2.46 uM after 6 days by BCA assay. Type of assay: functional, NCI/ADR-RES.
A short description of assay [21]: Cytotoxicity against human MCF7/ADR cells assessed as ratio of drug concentration to 2 x drug ED50 at 0.62 uM after 6 days by BCA assay. The assay is classed as functional, NCI/ADR-RES.

Values after ≈ are worked out from the molar mass of the structure shown. Active and inactive are the calls of the source. The calls are words filed in the database; no cut-off is given here.

For `CC[C@H]1CN2CC[C@H]1C[C@H]2[C@@H](Oc1cc(C)c2ccccc2n1)c1ccnc2ccc(OC)cc12`, the Ratio ED50 in [1] amounted to 6; in assay [4] it was 3; in assay [6] it was 18. Besides, the Ratio in assay [2] was 0.06; in [3], 0.03; in assay [5], 0.11.

For `C=C[C@H]1C[N+]2(Cc3ccccc3)CC[C@H]1C[C@H]2[C@H](O)c1ccnc2ccc(OC)cc12`, the result in assay [7] and in assay [8] was inactive.

Turning to `COc1ccc(CCN(C)CCCC(C#N)(c2ccc(OC)c(OC)c2)C(C)C)cc1OC` (stereo not drawn), in assay [7], the outcome was inactive.

As for `COc1cccc2c1C(=O)c1c(O)c3c(c(O)c1C2=O)C[C@@](O)(C(=O)CO)C[C@@H]3O[C@H]1C[C@H](N)[C@H](O)[C@H](C)O1` [DOXORUBICIN], the outcome in assay [7] was Active. For the same compound, the EC50 in assay [9] is 0.0021 µg/mL (≈ 0.00386 µM); in [10], 2.7 µg/mL (≈ 4.97 µM); in assay [11] it was 0.47 µg/mL (≈ 0.865 µM); in assay [12], 0.0018 µg/mL (≈ 0.00331 µM).

On to `COC(=O)[C@H]1[C@H]2C[C@H]3c4[nH]c5cc(OC)ccc5c4CCN3C[C@H]2C[C@@H](OC(=O)c2cc(OC)c(OC)c(OC)c2)[C@@H]1OC` [ISORESERPINE], for which the Ratio is 0.04 in assay [13], 0.09 in assay [14] and 0.17 in assay [15].

Turning to `COC(=O)[C@H]1[C@H]2C[C@@H]3c4[nH]c5cc(OC)ccc5c4CCN3C[C@H]2C[C@@H](OC(=O)c2cc(OC)c(OC)c(OC)c2)[C@@H]1OC` [RESERPINE], the Ratio in assay [16] is 0.05; in [17], 0.009; in assay [18], 0.04; in assay [20] it was 0.08; in assay [21] it was 0.02. The same compound had an Activity in assay [19] of 79.2%.
